Experimental data taken from PubChem BioAssay AID1963835 (Molecular Pharmacology Branch, DTP, NCI, 2024).

Tested on: 699152-130-R-J1-PDC complex spheroid viability
Test: Anticancer human tumor 699152-130-R-J1-PDC patient-derived pancreatic carcinoma cell line growth inhibition [POLQ]
Conditions: for IC50: curve of first compound; for viability, T/C: stronger effect = lower value; active = viability on the fitted dose curve at most 10% of control; inactive = the rest
Procedure, shortened: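 PDC + HUVEC + MSC complex spheroids; POLQ inhibitors ± partner drugs; top conc. at/near clinical Cmax, else 10 microM (SN-38 1 microM), half-log dilutions; 37 degrees C, 5% CO2.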
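Also: spheroids exposed to agents for 7 days before viability reading.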
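For viability, T/C in this document: percent of DMSO vehicle control viability so 100% = vehicle and 0% = no viable signal.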

CC(=O)O[C@H]1C(=O)[C@@]2(C)[C@H]([C@H](OC(=O)c3ccccc3)[C@]3(O)C[C@H](OC(=O)[C@H](O)[C@@H](NC(=O)c4ccccc4)c4ccccc4)C(C)=C1C3(C)C)[C@]1(OC(C)=O)CO[C@@H]1C[C@@H]2O + Cc1cccc(N(C)C(=O)C2C(O)CCN2c2nc(C)cc(C(F)(F)F)c2C#N)c1
> 3 µM: IC50 (second compound 0.0316 µM) | IC50 (second compound 0.1 µM) | IC50 (second compound 0.316 µM) | IC50 (second compound 1 µM) | IC50 (second compound 3.16 µM) | IC50 (second compound 10 µM)
inactive: viability, T/C (second compound 0.0316 µM, first compound 0.00949 µM) 83.5% | viability, T/C (second compound 0.0316 µM, first compound 0.03 µM) 57.6% | viability, T/C (second compound 0.0316 µM, first compound 0.0949 µM) 56.1% | viability, T/C (second compound 0.0316 µM, first compound 0.3 µM) 56.9% | viability, T/C (second compound 0.0316 µM, first compound 0.949 µM) 67% | viability, T/C (second compound 0.0316 µM, first compound 3 µM) 65.9% | viability, T/C (second compound 0.1 µM, first compound 0.00949 µM) 79.7% | viability, T/C (second compound 0.1 µM, first compound 0.03 µM) 57.1% | viability, T/C (second compound 0.1 µM, first compound 0.0949 µM) 51% | viability, T/C (second compound 0.1 µM, first compound 0.3 µM) 57.7% | viability, T/C (second compound 0.1 µM, first compound 0.949 µM) 72.2% | viability, T/C (second compound 0.1 µM, first compound 3 µM) 64.9% | viability, T/C (second compound 0.316 µM, first compound 0.00949 µM) 74.5% | viability, T/C (second compound 0.316 µM, first compound 0.03 µM) 60.9% | viability, T/C (second compound 0.316 µM, first compound 0.0949 µM) 53.3% | viability, T/C (second compound 0.316 µM, first compound 0.3 µM) 59.4% | viability, T/C (second compound 0.316 µM, first compound 0.949 µM) 64.9% | viability, T/C (second compound 0.316 µM, first compound 3 µM) 64.1% | viability, T/C (second compound 1 µM, first compound 0.00949 µM) 81.2% | viability, T/C (second compound 1 µM, first compound 0.03 µM) 54.8% | viability, T/C (second compound 1 µM, first compound 0.0949 µM) 57.9% | viability, T/C (second compound 1 µM, first compound 0.3 µM) 61.3% | viability, T/C (second compound 1 µM, first compound 0.949 µM) 62.4% | viability, T/C (second compound 1 µM, first compound 3 µM) 71.8% | viability, T/C (second compound 3.16 µM, first compound 0.00949 µM) 82.8% | viability, T/C (second compound 3.16 µM, first compound 0.03 µM) 62.1% | viability, T/C (second compound 3.16 µM, first compound 0.0949 µM) 58.8% | viability, T/C (second compound 3.16 µM, first compound 0.3 µM) 65.2% | viability, T/C (second compound 3.16 µM, first compound 0.949 µM) 69.7% | viability, T/C (second compound 3.16 µM, first compound 3 µM) 79.1% | viability, T/C (second compound 10 µM, first compound 0.00949 µM) 84% | viability, T/C (second compound 10 µM, first compound 0.03 µM) 57% | viability, T/C (second compound 10 µM, first compound 0.0949 µM) 69.1% | viability, T/C (second compound 10 µM, first compound 0.3 µM) 65.9% | viability, T/C (second compound 10 µM, first compound 0.949 µM) 72.1% | viability, T/C (second compound 10 µM, first compound 3 µM) 82.8%

CC1COCCN1c1cc(C2(O)CC3CCC(C2)O3)c2cnn(-c3ccn[nH]3)c2n1 (centres undefined) + Cc1cccc(N(C)C(=O)C2C(O)CCN2c2nc(C)cc(C(F)(F)F)c2C#N)c1
1.94 µM: IC50 (second compound 10 µM)
1.05 µM: IC50 (second compound 0.316 µM)
1.99 µM: IC50 (second compound 0.0316 µM)
inactive: viability, T/C (second compound 0.0316 µM, first compound 0.0316 µM) 92.1% | viability, T/C (second compound 0.0316 µM, first compound 0.1 µM) 83.9% | viability, T/C (second compound 0.0316 µM, first compound 0.316 µM) 64.9% | viability, T/C (second compound 0.0316 µM, first compound 1 µM) 60.6% | viability, T/C (second compound 0.0316 µM, first compound 3.16 µM) 44.5% | viability, T/C (second compound 0.0316 µM, first compound 10 µM) 33.1% | viability, T/C (second compound 0.1 µM, first compound 0.0316 µM) 94.6% | viability, T/C (second compound 0.1 µM, first compound 0.1 µM) 78.7% | viability, T/C (second compound 0.1 µM, first compound 0.316 µM) 60.9% | viability, T/C (second compound 0.1 µM, first compound 1 µM) 52.2% | viability, T/C (second compound 0.1 µM, first compound 3.16 µM) 44% | viability, T/C (second compound 0.1 µM, first compound 10 µM) 38.6% | viability, T/C (second compound 0.316 µM, first compound 0.0316 µM) 93% | viability, T/C (second compound 0.316 µM, first compound 0.1 µM) 94% | viability, T/C (second compound 0.316 µM, first compound 0.316 µM) 64.6% | viability, T/C (second compound 0.316 µM, first compound 1 µM) 54.3% | viability, T/C (second compound 0.316 µM, first compound 3.16 µM) 47.4% | viability, T/C (second compound 0.316 µM, first compound 10 µM) 39.7% | viability, T/C (second compound 1 µM, first compound 0.0316 µM) 96.3% | viability, T/C (second compound 1 µM, first compound 0.1 µM) 83.1% | viability, T/C (second compound 1 µM, first compound 0.316 µM) 66.4% | viability, T/C (second compound 1 µM, first compound 1 µM) 52.8% | viability, T/C (second compound 1 µM, first compound 3.16 µM) 47.5% | viability, T/C (second compound 1 µM, first compound 10 µM) 37.8% | viability, T/C (second compound 3.16 µM, first compound 0.0316 µM) 98.2% | viability, T/C (second compound 3.16 µM, first compound 0.1 µM) 87.2% | viability, T/C (second compound 3.16 µM, first compound 0.316 µM) 62.3% | viability, T/C (second compound 3.16 µM, first compound 1 µM) 58.8% | viability, T/C (second compound 3.16 µM, first compound 3.16 µM) 45% | viability, T/C (second compound 3.16 µM, first compound 10 µM) 33.6% | viability, T/C (second compound 10 µM, first compound 0.0316 µM) 84.6% | viability, T/C (second compound 10 µM, first compound 0.1 µM) 81.8% | viability, T/C (second compound 10 µM, first compound 0.316 µM) 69.7% | viability, T/C (second compound 10 µM, first compound 1 µM) 57.3% | viability, T/C (second compound 10 µM, first compound 3.16 µM) 44.9% | viability, T/C (second compound 10 µM, first compound 10 µM) 39.1%
1.69 µM: IC50 (second compound 1 µM)
1.2 µM: IC50 (second compound 0.1 µM)
1.74 µM: IC50 (second compound 3.16 µM)
